According to ChEMBL document CHEMBL3832544, “DailyMed|setid=fb8a2e5b-fd23-4977-81de-a95f4af168e2 | ONMEL- itraconazole tablet|Merz Pharmaceuticals, LLC”:

Tests used:
Format in all cases: ADME, organism-based
Set-up in all cases: dose 200 mg, route oral
[1] = (§1) The pharmacokinetic parameters of Itraconazole after single oral administration of 200 mg Itraconzole to 9 male and 9 female healthy subjects in fasting and in fed conditions; details: both, human, in vivo, dietary status Fed, dosed compound id 2, dosed compound name ITRACONAZOLE, gender male and female, regimen Single dose, tissue Plasma
[2] = system: Homo sapiens; assay: as §1; details: in vivo, po, dietary status Fasted, dosed compound id 2, dosed compound name ITRACONAZOLE, gender male and female, regimen Single dose, tissue Plasma
[3] = (§2) The steady-state pharmacokinetics of itraconazole analyzed after multiple oral dosing of 16 healthy volunteers with 200 mg Itraconazole following a moderate-fat breakfast once daily for 14 days in an open-label study; details: human, in vivo, dietary status Fed with moderate-fat breakfast, dose 200 mg, dosed compound id 2, dosed compound name ITRACONAZOLE, gender male and female, regimen Multiple dose, route oral, tissue Plasma
[4] = system: Homo sapiens; assay: as §2; details: in vivo, po, 336 h, dietary status Fed with moderate-fat breakfast, dosed compound id 2, dosed compound name ITRACONAZOLE, gender male and female, regimen Multiple dose, tissue Plasma

Cmax ([1]; po, 200 mg): 213 ng/mL | AUC ([1]; po, 200 mg, read-out: AUC(0-inf)): 3340 ng·h/mL | Tmax ([1]; dose 200 mg, route oral): 4.6 h | Tmax ([2]; dose 200 mg): 2.9 h | AUC(0-inf) [2]: 2270 ng·h/mL | Cmax [2]: 162 ng/mL | Tmax ([3]; study dosing duration 1 day): 4 h | half-life ([3]; study dosing duration 14 day, read-out: t1/2 ss (converted)): 36.8 h | AUC(0-24) ([4]; study dosing duration 1 day): 905.09 ng·h/mL | Cmax ss ([4]; study dosing duration 1 day): 116.8 ng/mL | AUC(0-24) ([4]; study dosing duration 14 day): 9046.81 ng·h/mL | Cmax ss ([4]; study dosing duration 14 day): 658.1 ng/mL
Compound: CCC(C)n1ncn(-c2ccc(N3CCN(c4ccc(OCC5COC(Cn6cncn6)(c6ccc(Cl)cc6Cl)O5)cc4)CC3)cc2)c1=O (configuration not stated) [ITRACONAZOLE]
